Assay in all cases: NCI-60 cell line screen, 48 h
In test [1] the test system is 786-0 renal.
The subject of test [2] is CCRF-CEM leukemia.
Test [3] has as its system EKVX NSCLC.
Test [4] relates to KM12 colon.
Test [5] concerns OVCAR-4 ovarian.
The subject of test [6] is OVCAR-8 ovarian.
Test [7] relates to SF-295 CNS.
The test system of test [8] is SK-MEL-28 melanoma.
Test [9] deals with UO-31 renal.
The subject of test [10] is LOX IMVI melanoma.

Experimental findings from PubChem BioAssay (NCI) are described below.

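Cultured in 96-well plates, cells were exposed to test compound for 48 hours across five concentrations. GI50 = concentration required for 50% inhibition of growth. TGI: concentration producing complete growth inhibition.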 Where only a bound is given, the exact number is not on record here.

Regarding `O=S(=O)([O-])[O-].[OH3+].[OH3+].[OH3+].[Ru+2].c1ccccc1`, the GI50 in [1], in test [2], in [3], in test [4], in test [5] and in test [6] was greater than 100 µM in each case. The GI50 in test [7], in [8] and in test [9] was greater than 100 µM in each case. Further, the TGI in test [1], in test [2], in [3], in test [4], in test [5] and in [6] was greater than 100 µM each time. The TGI in test [7], in [8] and in test [9] was greater than 100 µM in each case.
For the compound `CC(C)C(C(=O)O)N(CC1(O)OCC(O)C(O)C1O)N=O` (centres undefined), the TGI in test [1], in test [2], in test [3], in [4], in test [10] and in test [6] was greater than 100 µM throughout. For the same compound, the TGI in [8] and in test [9] was greater than 100 µM in each case.
Regarding `O=C1C=CC(=O)c2c1ccc1c3ccccc3n(-c3ccccn3)c21`, the TGI in [1] was 28.5 µM; in [2], greater than 100 µM; in test [3] it was 43.4 µM; in test [4] it was greater than 100 µM; in test [5], 29.8 µM; in [6] it was greater than 100 µM. Further, the TGI was greater than 100 µM in [7], greater than 100 µM in test [8] and 35.8 µM in test [9].
For `COC(=O)c1c[nH]cc1CCc1c[nH]cc1C(=O)OC`, the TGI in test [1], in test [2], in [3], in test [4], in [10] and in test [5] was greater than 100 µM in each case. For the same compound, the TGI in test [6], in test [7] and in [8] was greater than 100 µM each time.
Regarding `C/C(CN1C(=O)c2ccccc2C1=O)=N\NS(=O)(=O)c1cccc([N+](=O)[O-])c1`, the TGI in [1], in test [2], in [3], in test [4], in [5] and in test [6] was greater than 100 µM throughout. The TGI in test [7], in [8] and in test [9] was greater than 100 µM in each case.
`COc1ccc(-c2ccc(C3CC(c4ccc(O)cc4)=NN3)o2)c([N+](=O)[O-])c1` (centres undefined): the GI50 was 45.1 µM in [1]; 4.84 µM in [2]; 43 µM in test [3]; 24.5 µM in test [4]; 50.2 µM in test [5]; 42.8 µM in test [6]. Also, the GI50 in [7] is 29.9 µM; in [8], 45.8 µM; in test [9], 50.3 µM. In addition, the TGI in test [1] is greater than 100 µM; in test [2] it was greater than 100 µM; in test [3], greater than 100 µM; in [4], 95.9 µM; in test [5], 96.6 µM; in [6] it was greater than 100 µM. Also, the TGI in [7], in test [8] and in test [9] was greater than 100 µM throughout.
For the compound `Cc1ccc(S(=O)(=O)N/N=C(\CCN2CCCC2)CC(c2ccccc2)c2c(O)c3ccccc3oc2=O)cc1` (centres undefined), the TGI in test [1], in test [2], in [3], in test [4], in test [10] and in test [5] was greater than 100 µM in each case. In addition, the TGI in [6], in test [7] and in test [9] was greater than 100 µM throughout.
Regarding `CN(C)c1ccc(-c2cc(=O)c3ccccc3[nH]2)cc1`, the TGI in test [1], in test [2], in test [3], in test [4], in test [10] and in [6] was greater than 100 µM in each case. In addition, the TGI in test [7], in test [8] and in test [9] was greater than 100 µM throughout.
Take `Cn1ncc(=S)[nH]c1=S`: the TGI in test [1], in test [2], in test [3], in [10], in test [5] and in test [6] was greater than 100 µM in each case. Further, the TGI in test [7], in test [8] and in test [9] was greater than 100 µM throughout.
Turning to `OCCN(CCO)N=Nc1ccc(-c2nc3ccccc3[nH]2)cc1`, the GI50 in [1] is 25.2 µM; in test [3] it was 17.1 µM; in test [4] it was 16.3 µM; in test [10], 12.5 µM; in test [5], 15.9 µM; in test [6], 24.7 µM. Also, the results for the GI50 in [7], in test [8] and in [9] were 17.4 µM, 15.8 µM and 43.8 µM, respectively. Further, the TGI in test [1] was 56.2 µM; in test [3], 37.5 µM; in [4], 55.4 µM; in test [10] it was 25.5 µM; in test [5], 36.1 µM; in test [6], 53.9 µM. The figures for the TGI in [7], in [8] and in [9] were 36 µM, 29.5 µM and greater than 100 µM, respectively.
As to `O=C(Cc1nc2ccccc2s1)C(=O)Nc1ccc(Cl)cc1`, the TGI in test [1], in [3], in test [4], in test [10], in [5] and in [6] was greater than 100 µM throughout. The TGI in [7], in test [8] and in [9] was greater than 100 µM throughout.
For the compound `CC(=O)N1CCC2(C=Nc3ccccc32)CC1`, the TGI in test [1], in test [2], in [3], in test [4], in test [10] and in test [5] was greater than 100 µM each time. In addition, the TGI in test [6], in test [7] and in test [8] was greater than 100 µM each time.
